{
  "source": "paper PMC11591356",
  "about": "“Immunomodulatory Effects of the Tobacco Defensin NaD1” (Antibiotics, 2024)",
  "key": {"mature DCs": {"tested_on": "mature DCs", "conditions": "previous study; cited from earlier work", "source_text": "In the next step of this work, we studied the immunomodulatory properties of NaD1 by using primary monocytes and monocyte-derived immature dendritic cells (DCs). DCs represent a type of antigen-presenting cells, playing a key role in adaptive immune response. Their primary functions involve phagocytosis, processing and presentation of captured antigens to T cells. In most tissues, they are present in a state known as “immature” DCs, unable to activate and stimulate T lymphocytes; their activation and maturation typically starts when DCs identify danger signals. This is why immature DCs ..."}, "[1]": {"tested_on": "THP-1-derived macrophages", "experiment": "ELISA assay of cytokine production by THP-1-derived macrophages", "format": "cell-based, human", "procedure": "THP-1 (ATCC TIB-202) cells were thawed and cultured in complete RPMI-1640, containing 10% FBS (Capricorn Scientific) and 1×AA solution in CO2-intubator. Monocytic THP-1 cells were differentiated into resting M0 macrophages by stimulation for 24 h with 100 ng/mL phorbol 12-myristate 13-acetate (PMA) in complete RPMI-1640. Then, the attached macrophage-like cells were washed out with culture medium without serum and incubated for another 48 h in PMA-free complete culture medium with 10% HS and 1×AA solution.\nTHP-1-derived macrophages were seeded into the wells of a 24-well plate at a density of 2.7 × 10^5 cells/well in complete RPMI-1640 with 10% HS and 1×AA solution. Then, 24 h later, the culture medium was replaced by the fresh complete RPMI-1640 containing lipopolysaccharide from Escherichia coli 0111:B4 (LPS, Sigma, St. Louis, MO, USA) or zymosan from the cell wall of Saccharomyces cerevisiae (Serva, Heidelberg, Germany) at concentrations of 1 or 10 μg/mL, respectively; antimicrobial peptides NaD1, Psd1, LL-37 or HBD2 at concentrations of 2 or 0.2 µM; and combinations of antimicrobial peptides with LPS or zymosan at the same concentrations. Insoluble zymosan was resuspended in sterile water and sonicated twice for 30 s; after that, the stock solution was heated to 80 °C for 20 min. Peptides were added 2 h before stimulation with LPS and zymosan. After that, PAMPs solutions were added and the cells were cultured for 24 h. Complete RPMI-1640 only was used in the control wells. Culture supernatants were collected and stored at −70 °C prior to the cytokines’ assessment.\nThe production of pro- and anti-inflammatory cytokines IL-1β, IL-6, TNF-α and IL-10 by stimulated and non-stimulated THP-1-derived macrophages were estimated by using ELISA kits (Vector-Best, Koltsovo, Russia). Briefly, 96-well plates with adsorbed monoclonal antibodies to the corresponding cytokine were used. Undiluted or diluted 5, 20 or 80 times in the case of IL-10, TNF-α and IL-1β or IL-6, respectively, culture supernatants from the wells of 24-well plates were taken for analysis. Biotinylated polyclonal antibodies to cytokines, streptavidin conjugated to HRP and TMB substrate were further used for the detection of immune complexes. A panel of calibration solutions containing different concentrations of cytokines was used in each experiment. Experiments were performed using two biological and two technical repeats. The release of the cytokines in the control and experimental samples was compared with an unpaired two-sample t-test using GraphPad Prism v.8.0.1 (GraphPad Software, Inc., San Diego, CA, USA). The p values ≤ 0.05 were considered significant."}, "[2]": {"tested_on": "Caco-2 polarized monolayer", "conditions": "cited from earlier work"}, "PBMCs [3]": {"tested_on": "PBMCs", "conditions": "cited from earlier work", "procedure": "(§1) The human cathelicidin LL-37 has been previously shown to have a toxic effect on PBMCs at the concentration of 12 µM [20]."}, "primary monocytes": {"tested_on": "primary monocytes", "conditions": "cited from earlier work", "source_text": "Then, primary human monocytes were chosen to study the immunomodulatory properties of NaD1. Monocytes circulating in the blood can be recruited and extravasated into tissues during inflammatory processes. Moreover, the recruitment of monocytes to the sites of inflammation is critical for host defense not only when infected, but also in the case of sterile injury. In the case of monocytes, NaD1 at the same concentration induced a decrease of chemotactic CXCL1/GROα and CXCL8/IL-8 levels and elevation of the fibroblast growth factor 2 (FGF-2) production; however, these changes were ..."}, "[4]": {"tested_on": "Caco-2 cells in a monolayer", "experiment": "Cytotoxicity assay, resazurin method, Caco-2 cells in a monolayer", "format": "cell-based, human", "conditions": "Caco-2 monolayer, peptide 0.8 µM, 24 h", "procedure": "(§2) The cytotoxic effects of the tobacco defensin NaD1 towards PBMCs or Caco-2 cells were investigated in 96-well plates using the resazurin method as previously described. In brief, 4 × 10^5 per well Caco-2 cells not in a monolayer as well as Caco-2 cells in a monolayer in DMEM/F12 (1:1) medium with 10% FBS or 2 × 10^6 PBMCs per well in RPMI-1640 also with 10% FBS were incubated with serial dilutions of NaD1 at final concentrations from 0.39 to 50 μM or from 2.1 to 180 μM for 24 h. After that, resazurin (Sigma, St. Louis, MO, USA) was added at a final concentration of 70 µM and the plates were incubated overnight (16–18 h). Untreated cells and cells treated by non-ionogenic detergent Triton X-100 were used as negative and positive controls, respectively. […] The cell viability was estimated by resorufin fluorescence registered at […] via the following equation: cell viability (%) = (Fsample/Fcontrol) × 100%. Experiment was carried out twice in duplicate."}, "PBMCs [5]": {"tested_on": "PBMCs", "experiment": "Cytotoxicity assay, resazurin method, PBMCs", "format": "cell-based, human", "conditions": "PBMCs, peptide 2.5 µM, 24 h, resazurin", "source_text": "Peripheral blood mononuclear cells (PBMCs) from healthy donors were purchased from American Type Culture Collection (ATCC PCS-800-011). Primary monocytes were isolated from PBMCs by adherence to the plastic surface. For that, PBMCs were thawed, resuspended in RPMI-1640 culture medium (Corning, Corning, NY, USA) without serum at a concentration of 2 × 10^6 cells/mL, seeded into the wells of a 24-well plate and placed in a humidified CO2-intubator (CellXpert C170i, Eppendorf, Hamburg, Germany) for 1 h. After that, non-adherent cells were removed from the wells and attached monocytes were thoroughly washed with PBS and cultured in a CO2-intubator in complete RPMI-1640 containing 10% human serum (HS Type AB, Capricorn Scientific, Ebsdorfergrund, Germany) and 1×antibiotic-antimycotic (1×AA) solution (Sigma, St. Louis, MO, USA).\nas §2"}, "THP-1 cells": {"tested_on": "THP-1 cells", "conditions": "peptide 1.2 µM; cited from earlier work", "procedure": "as §1"}, "[6]": {"conditions": "peptide 2 µM 2 h before LPS 1 μg/mL, 24 h, vs LPS alone"}, "[7]": {"conditions": "peptide 2 µM 2 h before zymosan 10 μg/mL, 24 h, vs zymosan alone"}},
  "data": [
    {"compound": "Psd1: Pea defensin Psd1 (UNIPROT P81929), obtained as described previously (KTCEHLADTYRGVCFTNASCDDHCKNKAHLISGTCHNWKCFCTQNC; UniProt P81929 1-46, looked up) [reference compound]", "values": [
      {"measurement": "Production of cytokines and chemokines by mature DCs", "setting": "mature DCs", "result": "induced an elevation of the production of cytokines IL-1RA, IL-5, IL-6, IL-10, IL-12, IL-15, IL-27 and TNFα and chemokines CXCL8/IL-8, CCL2/MCP-1 and CCL7/MCP-3"},
      {"measurement": "LPS-induced IL-6 production", "setting": "[1]; [6]", "result": "increased the LPS-stimulated production of IL-6"},
      {"measurement": "LPS-induced IL-10 production", "setting": "[1]; [6]", "result": "increased the LPS-induced production of IL-10"},
      {"measurement": "LPS-induced TNF-α secretion", "setting": "[1]; [6]", "result": "reduced the LPS-induced secretion of TNF-α"},
      {"measurement": "IL-1β production in the presence of zymosan", "setting": "[1]; [7]", "result": "slightly reduced the production of IL-1β"},
      {"measurement": "IL-10 production in the presence of zymosan", "setting": "[1]; [7]", "result": "increased the production of IL-10 in the presence of zymosan"},
      {"measurement": "IL-10 production, unstimulated macrophages", "setting": "[1]; peptide 2 µM alone, vs unstimulated control", "result": "induced the production of IL-10"},
      {"measurement": "Papp A→B compared with NaD1", "setting": "[2]; Psd1 value from earlier work", "result": "nearly the same"},
      {"measurement": "Papp, secretory versus absorptive direction", "setting": "[2]", "result": "apparent permeability coefficients were higher in the secretory direction than in the absorptive one"},
      {"measurement": "Cytotoxic activity against PBMCs", "setting": "PBMCs [3]; peptide 50 µM", "result": "no cytotoxic activity"},
      {"measurement": "Production of chemokines by monocytes", "setting": "primary monocytes", "result": "increased the production of both CCL3/MIP-1α and CCL4/MIP-1β"}
    ]},
    {"compound": "CC[C@H](C)[C@H](NC(=O)CN)C(=O)NCC(=O)N[C@@H](C)C(=O)N[C@H](C(=O)N[C@@H](CC(C)C)C(=O)N[C@@H](CCCCN)C(=O)N[C@H](C(=O)N[C@@H](CC(C)C)C(=O)N[C@H](C(=O)N[C@H](C(=O)NCC(=O)N[C@@H](CC(C)C)C(=O)N1CCC[C@H]1C(=O)N[C@@H](C)C(=O)N[C@@H](CC(C)C)C(=O)N[C@H](C(=O)N[C@@H](CO)C(=O)N[C@@H](Cc1c[nH]c2ccccc12)C(=O)N[C@H](C(=O)N[C@@H](CCCCN)C(=O)N[C@@H](CCCNC(=N)N)C(=O)N[C@@H](CCCCN)C(=O)N[C@@H](CCCNC(=N)N)C(=O)N[C@@H](CCC(N)=O)C(=O)N[C@@H](CCC(N)=O)C(N)=O)[C@@H](C)CC)[C@@H](C)CC)[C@@H](C)O)[C@@H](C)O)C(C)C)C(C)C", "note": "[melittin, reference compound]", "values": [
      {"measurement": "Cell viability", "setting": "[4]", "result": "a decrease in cell viability was observed"},
      {"measurement": "Cell death", "setting": "PBMCs [5]", "result": "approximately 50%"}
    ]},
    {"compound": "CC[C@H](C)[C@H](NC(=O)[C@H](CCCCN)NC(=O)[C@H](CCC(=O)O)NC(=O)[C@H](CCCCN)NC(=O)[C@H](CO)NC(=O)[C@H](CCCCN)NC(=O)[C@H](CCCNC(=N)N)NC(=O)[C@H](Cc1ccccc1)NC(=O)[C@H](Cc1ccccc1)NC(=O)[C@H](CC(=O)O)NC(=O)CNC(=O)[C@H](CC(C)C)NC(=O)[C@@H](N)CC(C)C)C(=O)NCC(=O)N[C@@H](CCCCN)C(=O)N[C@@H](CCC(=O)O)C(=O)N[C@@H](Cc1ccccc1)C(=O)N[C@@H](CCCCN)C(=O)N[C@@H](CCCNC(=N)N)C(=O)N[C@H](C(=O)N[C@H](C(=O)N[C@@H](CCC(N)=O)C(=O)N[C@@H](CCCNC(=N)N)C(=O)N[C@H](C(=O)N[C@@H](CCCCN)C(=O)N[C@@H](CC(=O)O)C(=O)N[C@@H](Cc1ccccc1)C(=O)N[C@@H](CC(C)C)C(=O)N[C@@H](CCCNC(=N)N)C(=O)N[C@@H](CC(N)=O)C(=O)N[C@@H](CC(C)C)C(=O)N[C@H](C(=O)N1CCC[C@H]1C(=O)N[C@@H](CCCNC(=N)N)C(=O)N[C@H](C(=O)N[C@@H](CCC(=O)O)C(=O)N[C@@H](CO)C(=O)O)[C@@H](C)O)C(C)C)[C@@H](C)CC)C(C)C)[C@@H](C)CC", "note": "[LL-37]", "values": [
      {"measurement": "Toxic effect on PBMCs", "setting": "PBMCs [3]; peptide 12 µM", "result": "toxic effect"}
    ]},
    {"compound": "HBD2: Recombinant human β-defensin 2 (UNIPROT O15263), expressed in E. coli (GIGDPVTCLKSGAICHPVFCPRRYKQIGTCGLPGTKCCKKP; UniProt O15263 24-64, looked up) [reference compound]", "values": [
      {"measurement": "LPS-induced IL-6 production", "setting": "[1]; [6]", "result": "increased the LPS-stimulated production of IL-6"},
      {"measurement": "Zymosan-induced IL-6 production", "setting": "[1]; [7]", "result": "slight decrease in the zymosan-induced production of IL-6"},
      {"measurement": "Level of THP-1 cell death", "setting": "THP-1 cells", "result": "did not increase the level of THP-1 cell death"}
    ]}
  ]
}
